For one test, the target named is human P2X7 receptor (Homo sapiens (Human), UniProt Q99572). Briefly: Pore permeation assay (YO PRO dye uptake). In kind it is cell-based.
In test [1] the target is P2X7 (IL-1β release from THP-1 cells) (Homo sapiens (Human), UniProt Q99572). In words: IL-1β release assay. In kind it is cell-based. In outline:
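THP-1 cells were differentiated with PMA 0.5 μM and primed 4 h with LPS 10 ng/ml. They were then pre-incubated 20 min with compound at 37° C and stimulated 30 min with BzATP 0.8 mM. Mature IL-1β released into the supernatant was quantified by sandwich ELISA.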

Where [2] appears, read: THP-1 cells, LPS primed, 0.8 mM BzATP, mature IL-1β by sandwich ELISA, read-out: hTHP-1/IL-ib IC50.
Where [3] appears, read: HEK293 transfected with human P2X7, BzATP 10 uM, YO PRO dye uptake, read-out: hP2X7 IC50.

Each structure is given as a SMILES string. Where two headings read alike, the source gives them in different places.

Sequence of P2X7 (IL-1β release from THP-1 cells) (Q99572 whole entry): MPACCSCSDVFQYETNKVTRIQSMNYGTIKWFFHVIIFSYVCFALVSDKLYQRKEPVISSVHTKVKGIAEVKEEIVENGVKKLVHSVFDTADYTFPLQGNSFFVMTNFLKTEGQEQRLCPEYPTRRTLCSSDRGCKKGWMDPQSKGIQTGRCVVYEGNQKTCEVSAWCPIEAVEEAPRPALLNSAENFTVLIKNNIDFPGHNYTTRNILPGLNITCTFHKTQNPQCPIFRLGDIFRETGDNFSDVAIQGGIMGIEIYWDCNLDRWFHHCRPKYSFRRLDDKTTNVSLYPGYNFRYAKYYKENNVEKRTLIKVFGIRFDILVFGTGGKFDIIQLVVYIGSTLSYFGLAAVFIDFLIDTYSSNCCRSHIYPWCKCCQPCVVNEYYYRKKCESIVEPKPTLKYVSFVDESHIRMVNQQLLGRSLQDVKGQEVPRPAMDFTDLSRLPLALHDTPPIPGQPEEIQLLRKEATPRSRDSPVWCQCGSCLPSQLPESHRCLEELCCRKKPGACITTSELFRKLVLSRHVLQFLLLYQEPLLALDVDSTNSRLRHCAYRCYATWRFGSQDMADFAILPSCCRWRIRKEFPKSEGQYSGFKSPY
Sequence of human P2X7 receptor (Q99572 whole entry): as above

For the compound `O=C(NCC1(N2CCN(c3ccccc3)CC2)CCCCC1)c1cn(C2COC2)c2cccc(Cl)c12` [Compound 51, 4-chloro-1-(oxetan-3-yl)-N-((1-(4-phenylpiperazin-1-yl)cyclohexyl)methyl)-1H-indole-3-carboxamide], the IC50 on human P2X7 receptor is 10 to 100 nM; in test [1] (setting [2]), less than 10 nM.
In the case of `CC(=O)N1CC[C@H]1Cn1cc(C(=O)NCC2CCC(F)(F)CC2)c2c(Cl)cccc21` [Compound 181, (S)-1-((1-acetylazetidin-2-yl)methyl)-4-chloro-N-((4,4-difluorocyclohexyl)methyl)-1H-indole-3-carboxamide], the IC50 (at human P2X7 receptor (setting [3]); in test [1] (setting [2])) was 101 to 500 nM throughout.
On to `O=C(NCC1CCC(F)(F)CC1)c1cn(C[C@@H]2CCN2)c2cccc(Cl)c12` [Compound 122, (S)-1-(azetidin-2-ylmethyl)-4-chloro-N-((4,4-difluorocyclohexyl)methyl)-1H-indole-3-carboxamide], for which the IC50 (against human P2X7 receptor; in test [1]) was 10 to 100 nM in each case.
For `O=C(NCC1(O)CCC(F)(F)CC1)c1cn(C[C@@H]2CCCO2)c2cccc(Cl)c12` [Compound 134, (S)-4-chloro-N-((4,4-difluoro-1-hydroxycyclohexyl)methyl)-1-((tetra hydrofuran-2-yl)methyl)-1H-indole-3-carboxamide], the IC50 against human P2X7 receptor lay within 10 to 100 nM; in test [1], 101 to 500 nM.
On the same counts, the results for `O=C(NCC1CCC(F)(F)CC1)c1cn(CC2CCCNC2)c2cccc(Cl)c12` (centres unmarked) [Compound 174, 4-chloro-N-((4,4-difluorocyclohexyl)methyl)-1-(piperidin-3-ylmethyl)-1H-indole-3-carboxamide] are 10 to 100 nM and 10 to 100 nM.
For `COCCn1cc(C(=O)NCC2CCC(F)(F)CC2)c2c(Cl)cccc21` [Compound 41, 4-chloro-N-((4,4-difluorocyclohexyl)methyl)-1-(2-methoxyethyl)-1H-indole-3-carboxamide], the IC50 is 10 to 100 nM against human P2X7 receptor and less than 10 nM in test [1] (setting [2]).
On to `CC1CCCC(O)(CNC(=O)c2cn(C3COC3)c3cccc(Cl)c23)C1` (centres unmarked) [Compound 83, 4-chloro-N-((1-hydroxy-3-methylcyclohexyl)methyl)-1-(oxetan-3-yl)-1H-indole-3-carboxamide], for which the results for the IC50 (at human P2X7 receptor (setting [3]); in test [1]) were less than 10 nM and 10 to 100 nM, respectively.
Consider `COCCn1cc(C(=O)NCC2(O)CCCCC2)c2c(Cl)cccc21` [Compound 19, 4-Chloro-1-(2-methoxy-ethyl)-1H-indole-3-carboxylic acid (1-hydroxy-cyclohexyl methyl)-amide], for which the IC50 fell in the range of 10 to 100 nM at human P2X7 receptor and 101 to 500 nM in test [1].
Regarding `COCCn1cc(C(=O)NC[C@@]2(O)CCCC(F)(F)C2)c2c(Cl)cccc21` [Compound 21, (R)-4-chloro-N-((3,3-difluoro-1-hydroxycyclohexyl)methyl)-1-(2-methoxyethyl)-1H-indole-3-carboxamide], the IC50 is less than 10 nM at human P2X7 receptor (setting [3]) and 10 to 100 nM in test [1].
For `O=C(NCC1CCC(C(F)(F)F)CC1)c1cn(C2COC2)c2cccc(Cl)c12` (centres unmarked) [Compound 53, 4-Chloro-1-oxetan-3-yl-1H-indole-3-carboxylic acid (4-trifluoromethyl-cyclohexylmethyl)-amide], the IC50 on human P2X7 receptor is 10 to 100 nM; in test [1] it was 101 to 500 nM.
The corresponding values for `O=C(NCC1(O)CCCC(F)(F)C1)c1cn(CC2CNC2)c2cccc(Cl)c12` (centres unmarked) [Compound 125] are 10 to 100 nM and 10 to 100 nM.
Take `CN1CCC[C@H]1Cn1cc(C(=O)NCC2(O)CCC(F)(F)CC2)c2c(Cl)cccc21` [Compound 169, (S)-4-chloro-N-((4,4-difluoro-1-hydroxycyclohexyl)methyl)-1-((1-methylpyrrolidin-2-yl)methyl)-1H-indole-3-carboxamide]: the IC50 (against human P2X7 receptor; in test [1]) was 10 to 100 nM in each case.
Consider `O=C(NCC1CCCC(F)(F)C1)c1cn(CC2CCCN2)c2cccc(Cl)c12` (centres unmarked) [Compound 156, 4-chloro-N-((3,3-difluorocyclohexyl)methyl)-1-(pyrrolidin-2-ylmethyl)-1H-indole-3-carboxamide], for which the figures for the IC50 (against human P2X7 receptor; in test [1] (setting [2])) were 10 to 100 nM and less than 10 nM, respectively.

These data come from patent US10323000B2, “Indole derivatives and their use in neurodegenerative diseases” (priority 2014, dated 2019).
